The target of this assay is T1, human HSD-1 (recombinant HSD-1) (Homo sapiens, UniProt P28845).
T1 construct: made in house
As to the kind of experiment: HSD-1 (hydroxysteroid dehydrogenase 1) activity inhibitory action in vitro, SPA, conversion of cortisone to cortisol. To be noted: recombinant human HSD-1 expressed using baculovirus system, 10 nM 3H cortisone, 500 μM NADPH, room temperature 90 to 120 min, read-out: hHSD1 (IC50 (nM)). Format: biochemical.

Some results are limits rather than exact numbers.

T1 sequence (P28845 whole entry): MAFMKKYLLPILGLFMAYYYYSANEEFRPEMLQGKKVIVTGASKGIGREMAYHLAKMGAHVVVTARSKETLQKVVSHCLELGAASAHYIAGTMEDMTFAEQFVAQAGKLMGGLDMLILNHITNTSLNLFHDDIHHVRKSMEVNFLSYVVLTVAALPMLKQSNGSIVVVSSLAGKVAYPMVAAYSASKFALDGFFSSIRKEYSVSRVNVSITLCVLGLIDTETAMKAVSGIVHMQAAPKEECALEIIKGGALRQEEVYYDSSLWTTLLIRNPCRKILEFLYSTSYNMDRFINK

Turning to `O=C(OCCO)N1CCC(n2ncc(C(=O)N3CC[C@@H](c4ccccc4C(F)(F)F)C3)c2C2CC2)CC1` [Example 58, 1-{5-cyclopropyl-1-[1-(2-hydroxyethoxycarbonyl)piperidin-4-yl]-1H-pyrazole-4-carbonyl}-[(S)-3-(2-trifluoromethylphenyl)]pyrrolidine], the IC50 (in general, the concentration at which inhibition is half-maximal) was under 30 nM.

The values are drawn from US20110245223A1, “HETEROCYCLIC COMPOUNDS” (Japan Tobacco Inc., priority 2005, published 2011).
